Tests used:
[1] = test system: CCK-A receptor vs CCK-B receptor; test: Selectivity for CCK-B receptor by comparison with binding to CCK-A receptor (rat pancreas membrane, [3H]L-364,718); design: species or system SD rat; conditions: rat pancreas (CCK-A) vs rat brain (CCK-B)
Experimental: Measurement of selectivity for CCK-B receptor by comparison with the binding to CCK-A receptor in rats:
The pancreas of an SD rat was homogenized in 20-fold volume of 50 mM Tris-HCl buffer (pH 7.7) by the use of a Polytrone-type homogenizer, the homogenate was twice centrifuged for 10 minutes at 50000 g by the use of an ultracentrifuge, the precipitate thus obtained was suspended in 40-fold volume of 50 mM Tris-HCl buffer (containing 0.2% BSA, 5 mM MgCl2, 0.1 mg/ml bacitracin and 5 mM DTT; pH 7.7), and the suspension was freeze-stored at -80° C., thus giving membrane preparation.
The membrane preparation was then molten at room temperature, diluted ten times with the buffer and incubated at 37° C. for 30 minutes in the presence of [^3 H]L-364, 718, and B/F separation was performed by suction filtration. Nonspecific binding was determined in the presence of 1 μM L-364, 718. The amount of labelled ligand bound to the receptor was measured by the use of a liquid scintillation counter; Ki (CCK-A) values were determined from the binding inhibition curve of the test sample, with the maximum amount of labelled ligand bound to the receptor being set as 100%.
The Ki (CCK-A)/Ki (CCK-B) value of the present compound can be calculated from the above test. The higher the value of Ki (CCK-A)/Ki (CCK-B), the higher will be the selectivity to the CCK-B receptor.

CCK-B receptor = biological target: T1, CCK-B receptor (Rattus norvegicus, UniProt P30553); test: Binding action upon CCK-B receptor ([125I]BH.CCK-8, rat whole brain membrane); design: species or system SD rat; conditions: [125I]BH.CCK-8, 25° C., 120 min, pH 6.5
T1 construct: the whole brain was immediately excised from each of the cut heads and homogenized; from tissue; host or cells: SD rat whole brain, membrane preparation
Experimental: Measurement of the binding action upon CCK-B receptor:
About 100 heads of SD rats were decapitated without anesthesia, the whole brain was immediately excised from each of the cut heads and homogenized in 10-fold volume of 0.32M aqueous solution of sucrose by the use of a Teflon-coated homogenizer, the homogenate thus obtained was centrifuged for ten minutes at 900 g by the use of a cooled centrifuge, and the supernatant was further centrifuged for 15 minutes at 11500 g. The precipitate thus obtained was dispersed in 50 mM Tris-HCl buffer (pH 7.4) containing 0.08% Triton X-100, this suspension was allowed to stand for 30 minutes and again centrifuged for 15 minutes at 11500 g, the precipitate thus obtained was washed twice with 5 mM Tris-HCl buffer and twice with 50 mM Tris-HCl buffer in that order through centrifugal separation, the washed precipitate was suspended in 50 mM Tris-HCl buffer, and the suspension thus obtained was freeze-stored at -80° C., thus giving membrane preparation.
The membrane preparation was molten at room temperature, diluted with 10 mM HEPES buffer (containing 130 mM NaCl, 5 mM MgCl2, 1 mM EGTA and 0.25 mg/ml bacitracin; pH 6.5) and incubated at 25° C. for 120 minutes in the presence of [^125 I]BH.cndot.CCK-8, and B/F separation was performed by suction filtration. Nonspecific binding was determined in the presence of 1 μM CCK-8. The amount of labelled ligand bound to the receptor was measured by the use of a […]; Ki (CCK-B) values were determined from the binding inhibition curve of the test sample, with the maximum amount of labelled ligand bound to the receptor being set as 100%.

[2] = test system: gastric-acid secretion caused by the stimulus of pentagastrin; test: Depression of gastric-acid secretion caused by the stimulus of pentagastrin; assay type: in vivo; conditions: Rattus norvegicus, iv; SD rats, urethane anesthetized, i.v. test drug, pentagastrin 15 μg/kg/hr i.v.
Text: Measurement of the action of depressing the gastric-acid secretion caused by the stimulus of pentagastrin:
A cannula was inserted into the trachea of a rat anesthetized with urethane (intraperitoneally administered in an amount of 1.25 g/kg), its abdominal wall was incised to expose the gastric and duodenal portions, and a polyethylene cannula was set at the anterior stomach after ligation of the cardia. The duodenum was then subjected to slight section, a polyethylene cannula was inserted from the incised portion toward the stomach, and the pylorus was ligated to fix the cannula.
Physiological saline (with pH adjusted to 7.0) was flown from the anterior stomach toward the pylorus at a speed of 3 ml/min, and the gastric-acid secretion was measured by continuous titration of the flown saline by the use of a pH-stat (AUT-201; product of Toa Electronics, Ltd.). The continuous titration was carried out by using 25 mM caustic soda solution until the pH reached 7.0, and the result was expressed as the amount of gastric acid secreted for every ten minutes (μEq /10 min.). Pentagastrin was intravenously administered at a rate of 15 μg/kg/hr. The secretion of gastric acid increased upon administration of pentagastrin, reaching the maximum level after 60 minutes and stably maintaining this level after that. […]

benzodiazepine receptor = test: Binding to the benzodiazepine receptor; conditions: even at 10 μM

T1 sequence (P30553 whole entry): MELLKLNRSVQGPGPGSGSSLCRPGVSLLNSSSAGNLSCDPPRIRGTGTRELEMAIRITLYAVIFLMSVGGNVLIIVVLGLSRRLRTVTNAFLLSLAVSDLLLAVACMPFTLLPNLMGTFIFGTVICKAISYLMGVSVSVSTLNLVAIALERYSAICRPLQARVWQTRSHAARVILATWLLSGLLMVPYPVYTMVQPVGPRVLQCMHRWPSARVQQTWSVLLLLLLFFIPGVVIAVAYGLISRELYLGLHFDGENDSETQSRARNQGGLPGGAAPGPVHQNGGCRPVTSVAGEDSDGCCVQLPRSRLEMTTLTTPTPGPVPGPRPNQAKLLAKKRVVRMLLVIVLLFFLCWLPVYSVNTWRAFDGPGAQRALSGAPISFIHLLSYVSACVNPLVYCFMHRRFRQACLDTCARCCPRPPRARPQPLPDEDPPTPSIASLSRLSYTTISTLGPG

With Cc1cccc(NC(=O)NC2N=C(c3ccccc3)c3ccccc3N(CC(=O)c3ccccc3C)C2=O)c1 (stereo not shown) [Example 2, 1-[2,3-dihydro-1-(2'-methylphenacyl)-2-oxo-5-phenyl-1H-1,4-benzodiazepin-3-yl]-3-(3-tolyl)urea] the “Ki (CCK-A)/Ki (CCK-B), selectivity for the CCK-B receptor” value [1] was 1733 fold, the Ki (CCK-B receptor) was 0.15 nM and the ED50 [2] was 0.03 µmol/kg.
Cc1cccc(NC(=O)N[C@@H]2N=C(c3ccccc3)c3ccccc3N(CC(=O)c3ccccc3C)C2=O)c1 [Example 16, (R)-1-[2,3-dihydro-1-(2'-methylphenacyl)-2-oxo-5-phenyl-1H-1,4-benzodiazepin-3-yl]-3-(3-tolyl)urea] was tested, and the “binding action to the benzodiazepine receptor (in words)” value (benzodiazepine receptor) was “no binding action at all”.
In the case of Cc1ccc(C(=O)CN2C(=O)C(NC(=O)Nc3cccc(C)c3)N=C(c3ccccc3)c3ccccc32)cc1 (stereo not shown) [Example 7, 1-[2,3-Dihydro-1-(4'-methylphenacyl)-2-oxo-5-phenyl-1H-1,4-benzodiazepin-3-yl]-3-(3-tolyl)urea], the “Ki (CCK-A)/Ki (CCK-B), selectivity for the CCK-B receptor” value [1] is reported as 864 fold and the Ki (CCK-B receptor) is reported as 0.22 nM.
In the case of Cc1cccc(NC(=O)NC2N=C(c3ccccc3)c3ccccc3N(CC(=O)c3sccc3C)C2=O)c1 (stereo not shown) [Example 13, 1-[2,3-Dihydro-1-(3-methyl-2-thenoyl)methyl-2-oxo-5-phenyl-1H-1,4-benzodiazepin-3-yl]-3-(3-tolyl)urea], the Ki (CCK-B receptor) is reported as 0.16 nM.
